Counter-ions that a name gives are not always drawn.
Biological target: T1, human recombinant P2X7 receptor (Homo sapiens, UniProt Q99572)
T1 construct: expressed in transfected cells
T1 sequence (Q99572 1-595): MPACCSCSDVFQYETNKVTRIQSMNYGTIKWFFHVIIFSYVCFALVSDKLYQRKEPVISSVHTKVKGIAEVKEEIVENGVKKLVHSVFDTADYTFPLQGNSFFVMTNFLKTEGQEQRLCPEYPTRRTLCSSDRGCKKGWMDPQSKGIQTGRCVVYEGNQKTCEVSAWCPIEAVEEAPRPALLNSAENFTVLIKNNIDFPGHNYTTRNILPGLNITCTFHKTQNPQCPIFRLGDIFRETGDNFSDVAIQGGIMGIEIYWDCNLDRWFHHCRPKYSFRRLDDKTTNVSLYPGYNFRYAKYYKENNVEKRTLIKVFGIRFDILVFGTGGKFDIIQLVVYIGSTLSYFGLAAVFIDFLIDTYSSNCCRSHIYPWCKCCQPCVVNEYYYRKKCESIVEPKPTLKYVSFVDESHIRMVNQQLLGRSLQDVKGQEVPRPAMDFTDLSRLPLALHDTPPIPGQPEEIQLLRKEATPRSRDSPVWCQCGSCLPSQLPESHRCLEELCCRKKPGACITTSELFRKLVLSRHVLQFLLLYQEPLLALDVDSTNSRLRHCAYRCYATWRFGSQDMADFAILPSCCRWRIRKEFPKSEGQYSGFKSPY
Experiment: YO-PRO assay: P2X7 receptor antagonistic activity in HEK cells stably expressing P2X7
Format: cell-based
Conditions: antagonistic activity with respect to the P2X7 receptor, read-out: IC50
Outline: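 HEK cells stably transfected with human P2X7 (cloned from blood cDNA) were loaded with 0.5 μM YO-PRO-1. They were exposed to antagonist (10 concentrations, top 10 μM, 1/3 steps, duplicate) together with 250 μM ATP for 90 min, and dye uptake was read by FLIPR at ex 485/em 530. IC50 from maximum fluorescence versus concentration.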

SMILES | IC50 [nM]
COc1cc(C(=O)NCC(c2cnc(C)nc2)N2CCOCC2)c(Cl)c2cc[nH]c12 (single isomer, unassigned) [Example 115, 4-Chloro-7-methoxy-1H-indole-5-carboxylic acid [2-(2-methyl-pyrimidin-5-yl)-2-morpholin-4-yl-ethyl]-amide] | 8.2
Cc1ncc(C(CNC(=O)c2ccc3[nH]ccc3c2Cl)OC2CCCC2)cn1 (racemic) [Example 52, rac-4-Chloro-1H-indole-5-carboxylic acid [2-cyclopentyloxy-2-(2-methyl-pyrimidin-5-yl)-ethyl]-amide] | 32
O=C(NCC(c1ccc(F)cn1)N1CCOCC1)c1ccc2[nH]ccc2c1Cl (racemic) [Example 36, rac-4-Chloro-1H-indole-5-carboxylic acid [2-(5-fluoro-pyridin-2-yl)-2-morpholin-4-yl-ethyl]-amide] | 265
Cc1noc(C)c1C(CNC(=O)c1ccc2[nH]ccc2c1Cl)N1CCCCC1 (racemic) [Example 54, rac-4-Chloro-1H-indole-5-carboxylic acid [2-(3,5-dimethyl-isoxazol-4-yl)-2-piperidin-1-yl-ethyl]-amide] | 1850
Cc1ncc(C(CNC(=O)c2ccc3[nH]ccc3c2C)N2CCOCC2)cn1 (single isomer, unassigned) [Example 105, 4-Methyl-1H-indole-5-carboxylic acid [2-(2-methyl-pyrimidin-5-yl)-2-morpholin-4-yl-ethyl]-amide] | 20
O=C(NCC(c1cccc(F)c1)N1CCOCC1)c1ccc2[nH]ccc2c1Cl (racemic) [Example 37, rac-4-Chloro-1H-indole-5-carboxylic acid [2-(3-fluoro-phenyl)-2-morpholin-4-yl-ethyl]-amide] | 32
O=C(NCC(c1ccc(F)c(F)c1)N1CCCCC1)c1ccc2[nH]ccc2c1Cl (racemic) [Example 45, rac-4-Chloro-1H-indole-5-carboxylic acid [2-(3,4-difluoro-phenyl)-2-piperidin-1-yl-ethyl]-amide] | 83
O=C(NCC(c1ccns1)N1CCCCC1)c1ccc2[nH]ccc2c1Cl (racemic) [Example 61, rac-4-Chloro-1H-indole-5-carboxylic acid (2-isothiazol-5-yl-2-piperidin-1-yl-ethyl)-amide] | 15
COc1cc(C(=O)NCC(c2cnc(C)nc2)N2CCOCC2)c(F)c2cc[nH]c12 (racemic) [Example 118, rac-4-Fluoro-7-methoxy-1H-indole-5-carboxylic acid [2-(2-methyl-pyrimidin-5-yl)-2-morpholin-4-yl-ethyl]-amide] | 20
Cc1ncc(C(CNC(=O)c2ccc3[nH]ccc3c2Cl)N(C)Cc2ccccc2)cn1 (racemic) [Example 87, rac-4-Chloro-1H-indole-5-carboxylic acid [2-(benzyl-methyl-amino)-2-(2-methyl-pyrimidin-5-yl)-ethyl]-amide] | 2650
O=C(NCC(c1cnc(C2CC2)nc1)N1CCOCC1)c1ccc2[nH]ccc2c1Cl (racemic) [Example 9, rac-4-Chloro-1H-indole-5-carboxylic acid [2-(2-cyclopropyl-pyrimidin-5-yl)-2-morpholin-4-yl-ethyl]-amide] | 7.7
COc1cc(C(=O)NCC(c2cnc(C)nc2)N2CCOCC2)c(C)c2cc[nH]c12 (racemic) [Example 109, rac-7-Methoxy-4-methyl-1H-indole-5-carboxylic acid [2-(2-methyl-pyrimidin-5-yl)-2-morpholin-4-yl-ethyl]-amide] | 25
O=C(NCC(c1ccc(F)cn1)N1CCCCC1)c1ccc2[nH]ccc2c1Cl (racemic) [Example 32, rac-4-Chloro-1H-indole-5-carboxylic acid [2-(5-fluoro-pyridin-2-yl)-2-piperidin-1-yl-ethyl]-amide] | 232
O=C(NCC(c1ccc(Cl)nc1)N1CCC(F)(F)CC1)c1ccc2[nH]ccc2c1Cl (racemic) [Example 2, rac-4-Chloro-1H-indole-5-carboxylic acid [2-(6-chloro-pyridin-3-yl)-2-(4,4-difluoro-piperidin-1-yl)-ethyl]-amide] | 4.3
Cc1ncc([C@H](CNC(=O)c2ccc3[nH]ccc3c2Cl)N2CCCCC2C)cn1 (mixture of isomers) [Example 77, 4-Chloro-1H-indole-5-carboxylic acid [(R)-2-(2-methyl-piperidin-1-yl)-2-(2-methyl-pyrimidin-5-yl)-ethyl]-amide] | 87
O=C(NCC(c1ccc(F)cc1)N1CCOCC1)c1ccc2[nH]ccc2c1Cl (racemic) [Example 17, rac-4-Chloro-1H-indole-5-carboxylic acid [2-(4-fluoro-phenyl)-2-morpholin-4-yl-ethyl]-amide] | 9.2
Cc1ncc(C(CNC(=O)c2ccc3[nH]ccc3c2Cl)N2CCC(F)(F)CC2)cn1 (single isomer, unassigned) [Example 5, 4-Chloro-1H-indole-5-carboxylic acid [2-(4,4-difluoro-piperidin-1-yl)-2-(2-methyl-pyrimidin-5-yl)-ethyl]-amide] | 7.9

The remaining compounds from weak to strong by IC50, led by results:

IC50 [nM] | SMILES
831 | Cc1ncc(C(CNC(=O)c2ccc3[nH]ccc3c2Cl)N2CCC2)cn1 (racemic) [Example 13, rac-4-Chloro-1H-indole-5-carboxylic acid [2-azetidin-1-yl-2-(2-methyl-pyrimidin-5-yl)-ethyl]-amide]
447 | O=C(NCC(c1cccnc1)C1CCNCC1)c1ccc2[nH]ccc2c1Cl (racemic) [Example 20, rac-4-Chloro-1H-indole-5-carboxylic acid (2-piperidin-4-yl-2-pyridin-3-yl-ethyl)-amide dihydrochloride]
258 | Cc1ncc(C(CNC(=O)c2ccc3[nH]ccc3c2Cl)N2CCC(C(=O)OC(C)(C)C)CC2)cn1 (racemic) [Example 75, rac-1-[2-[(4-Chloro-1H-indole-5-carbonyl)-amino]-1-(2-methyl-pyrimidin-5-yl)-ethyl]-piperidine-4-carboxylic acid tert-butyl ester]
257 | Cc1cnc(C(CNC(=O)c2ccc3[nH]ccc3c2Cl)N2CCOCC2)cn1 (racemic) [Example 63, rac-4-Chloro-1H-indole-5-carboxylic acid [2-(5-methyl-pyrazin-2-yl)-2-morpholin-4-yl-ethyl]-amide]
19 | Cc1ncc(C(CNC(=O)c2ccc3[nH]ccc3c2C)N2CCOCC2)cn1 (racemic) [Example 100, rac-4-Methyl-1H-indole-5-carboxylic acid [2-(2-methyl-pyrimidin-5-yl)-2-morpholin-4-yl-ethyl]-amide]
15 | O=C(NCC(c1ccc(Cl)cc1)N1CCOCC1)c1ccc2[nH]ccc2c1Cl (racemic) [Example 38, rac-4-Chloro-1H-indole-5-carboxylic acid [2-(4-chloro-phenyl)-2-morpholin-4-yl-ethyl]-amide]
14 | COc1ccc(C(CNC(=O)c2ccc3[nH]ccc3c2Cl)N2CCOCC2)cn1 (racemic) [Example 11, rac-4-Chloro-1H-indole-5-carboxylic acid [2-(6-methoxy-pyridin-3-yl)-2-morpholin-4-yl-ethyl]-amide]
10 | Cc1ncc(C(CNC(=O)c2cc(C)c3[nH]ccc3c2Cl)N2CCOCC2)cn1 (single isomer, unassigned) [Example 97, 4-Chloro-7-methyl-1H-indole-5-carboxylic acid [2-(2-methyl-pyrimidin-5-yl)-2-morpholin-4-yl-ethyl]-amide]
